The assay has as its target T1, Pteridine reductase (Trypanosoma brucei brucei, UniProt O76290).
T1 sequence (O76290 whole entry): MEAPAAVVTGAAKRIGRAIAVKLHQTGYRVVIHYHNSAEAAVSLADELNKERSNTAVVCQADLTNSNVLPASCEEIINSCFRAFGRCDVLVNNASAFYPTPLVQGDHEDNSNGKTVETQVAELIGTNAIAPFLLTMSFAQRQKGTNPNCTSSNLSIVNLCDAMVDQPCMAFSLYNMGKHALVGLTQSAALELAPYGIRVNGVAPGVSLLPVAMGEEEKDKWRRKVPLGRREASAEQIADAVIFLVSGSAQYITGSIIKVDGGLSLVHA
The assay is described as follows: PTR1 Activity Assay. To be noted: pH 6; 23 °C. The method, then: TbPTR1 activity was measured in 96-well microtiter plates via reduction of cytochrome c (cytc) as a result of the enzymatic production of tetrahydrobiopterin (H4B). Enzyme activity was monitored by reading absorbance at 550 nm within the linear phase of reaction. Ki (app) values were calculated using a modified Morrison equation.

Ki data for one molecule are collected here from BindingDB's records for doi:10.1021/jm900414x (University of Dundee, 2009).

What is called Ki is a dissociation constant, usually derived from enzyme kinetics or from competition with a known ligand. Low values mean higher affinity, high ones lower affinity. With `CCn1c(N)nc2ccccc21` [2-aminobenzimidazole deriv., 7], the Ki is more than 200 µM.
